# Measured values published in patent publication US20220402998A1, “PROTEASE SWITCH FOR DUAL TARGETS CHIMERIC ANTIGEN RECEPTOR T CELL THERAPY” (priority 2019, published 2022).
# Test system: NS3/4A protease domain of the CAR
# Experiment: CAR surface expression on transduced T cells by flow cytometry with or without asunaprevir
# Format: cell-based, hepatitis C virus
# Experimental: For flow cytometry, cells are stained using standard procedures. Briefly, cells are suspended at a concentration of 1×10^7 cells/ml in PBS+3% FBS for analysis or in Sort Buffer (PBS, 25 mM HEPES, 1 mM EDTA, 0.1% BSA) for sorting. […] Cells are analyzed by flow cytometry using a CytoFLEX (Beckman Coulter Life Sciences, Indianapolis, Ind.) and operated under standard procedures. To enrich subpopulations of CD4+ and/or CD8+ cells, magnetically separated cells are stained with anti-CD4 and/or anti-CD8 antibodies and sorted on a FACScalibur Cell Sorter.
# After T cell transduction, different drugs were provided, CD19-, CD22-CAR were detected by CD19, CD22 protein through flow cytometry. Further, the biological characteristics of the dual-target switchable CAR-T cells were determined. For example, CD25 and CD69 antibodies were used to perform activation assays, CFSE for proliferation assays, CD4, CD8, CCR7 and CD45RA antibodies for determining T cell subsets, and Annexin-V for apoptosis assays. Further, cytotoxicity assays (Calcein-AM release), CD107a assay, and cytokine production detection were performed. These assays are of great importance in testing potency and defining how the switch system works.
compound,measurement,setting,value
C=C[C@@H]1C[C@]1(NC(=O)[C@@H]1C[C@@H](Oc2ncc(OC)c3ccc(Cl)cc23)CN1C(=O)[C@@H](NC(=O)OC(C)(C)C)C(C)(C)C)C(=O)NS(=O)(=O)C1CC1 [asunaprevir],stability of CAR expression levels over time,in the presence of asunaprevir,stable over time
same,CAR expression on T cell surface,"in the presence of asunaprevir, flow cytometry",a significant portion of T cells express on their cell surface the CAR
same,expression levels of CARs on cell surface versus concentration,increasing concentrations of asunaprevir,increase with exposure of said T cells to increasing concentrations of asunaprevir
same,CARs on the surface of CAR-T cells after withdrawal,withdrawal of asunaprevir for 24 hours,significant reduction of CARs on the surface of CAR-T cells
same,CARs on the surface of CAR-T cells after withdrawal,withdrawal of asunaprevir for 48 hours,absence of CARs on CAR-T cells
